What was measured:
Assay type in all cases: in vivo
[1] = tested on: cocklebur (Xanthium pensylvanicum); assay: Preemergence herbicidal activity, cocklebur; conditions: Xanthium strumarium, pre-emergence, 336 h, 2 lb/A
Procedure, shortened: (§1)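 Spray application (acetone, water dilution; 50 gal per acre carrier; dose as lb/A) onto seeded soil flats. Preemergence flats sprayed on the day of planting; postemergence flats after two weeks of germination. Kill % evaluated about two weeks afterward.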

marigold (Tagetes spp.) [2] = assay: Preemergence herbicidal activity, marigold; conditions: pre-emergence, 336 h, 2 lb/A
Procedure, shortened: as §1

[3] = tested on: morningglory (Ipomoca spp.); assay: Preemergence herbicidal activity, morningglory; conditions: Ipomoea, pre-emergence, 336 h, 2 lb/A
Procedure, shortened: as §1

[4] = tested on: tomato (Lycopersicon esculentum); assay: Preemergence herbicidal activity, tomato; conditions: Solanum lycopersicum, pre-emergence, 336 h; Pre, 2 lb/A
Procedure, shortened: as §1

[5] = tested on: velvetleaf (Abutilon theophrasti); assay: Preemergence herbicidal activity, velvetleaf; conditions: Abutilon theophrasti, pre-emergence, 336 h; Pre, 2 lb/A
Procedure, shortened: as §1

[6] = tested on: barnyardgrass (Echinochloa crusgalli); assay: Preemergence herbicidal activity, barnyardgrass; conditions: Echinochloa crus-galli, pre-emergence, 336 h; Pre, 2 lb/A
Procedure, shortened: (§2)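 Flats of soil-planted weed seeds were treated either right after sowing (preemergence) or two weeks after germination (postemergence). Application was a spray of acetone solution diluted in water, 50 gallons per acre carrier, dosed in lb/A.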

[7] = tested on: downybrome (Bromus tectorum); assay: Preemergence herbicidal activity, downybrome; conditions: Bromus tectorum, pre-emergence, 336 h, Pre, 2 lb/A
Procedure, shortened: as §1

foxtail (Setaria spp.) [8] = assay: Preemergence herbicidal activity, foxtail; conditions: Setaria, pre-emergence, 336 h; Pre, 2 lb/A
Procedure, shortened: as §1

[9] = tested on: yellow nutsedge (Cyperus esculentus); assay: Preemergence herbicidal activity, yellow nutsedge; conditions: Cyperus, pre-emergence, 336 h, 2 lb/A
Procedure, shortened: as §1

wild oats (Avena fatua) [10] = assay: Preemergence herbicidal activity, wild oats; conditions: Avena fatua, pre-emergence, 336 h, Pre, 2 lb/A; read-out: % control, Wild oat
Procedure, shortened: as §1

[11] = tested on: cocklebur (Xanthium pensylvanicum); assay: Postemergence herbicidal activity, cocklebur; conditions: Xanthium strumarium, post-emergence, 336 h, 2 lb/A
Procedure, shortened: as §1

marigold (Tagetes spp.) [12] = assay: Postemergence herbicidal activity, marigold; conditions: post-emergence, 336 h, 2 lb/A
Procedure, shortened: as §1

[13] = tested on: morningglory (Ipomoca spp.); assay: Postemergence herbicidal activity, morningglory; conditions: Ipomoea, post-emergence, 336 h, 2 lb/A
Procedure, shortened: as §1

[14] = tested on: tomato (Lycopersicon esculentum); assay: Postemergence herbicidal activity, tomato; conditions: Solanum lycopersicum, post-emergence, 336 h, Post, 2 lb/A
Procedure, shortened: as §1

[15] = tested on: velvetleaf (Abutilon theophrasti); assay: Postemergence herbicidal activity, velvetleaf; conditions: Abutilon theophrasti, post-emergence, 336 h, 2 lb/A
Procedure, shortened: as §2

[16] = tested on: barnyardgrass (Echinochloa crusgalli); assay: Postemergence herbicidal activity, barnyardgrass; conditions: Echinochloa crus-galli, post-emergence, 336 h; Post, 2 lb/A
Procedure, shortened: as §2

[17] = tested on: downybrome (Bromus tectorum); assay: Postemergence herbicidal activity, downybrome; conditions: Bromus tectorum, post-emergence, 336 h, Post, 2 lb/A
Procedure, shortened: as §1

foxtail (Setaria spp.) [18] = assay: Postemergence herbicidal activity, foxtail; conditions: Setaria, post-emergence, 336 h, Post, 2 lb/A
Procedure, shortened: as §1

[19] = tested on: yellow nutsedge (Cyperus esculentus); assay: Postemergence herbicidal activity, yellow nutsedge; conditions: Cyperus, post-emergence, 336 h, 2 lb/A
Procedure, shortened: as §1

wild oats (Avena fatua) [20] = assay: Postemergence herbicidal activity, wild oats; conditions: Avena fatua, post-emergence, 336 h, Post, 2 lb/A; read-out: % control, Wild oat
Procedure, shortened: as §1

Structure (SMILES) | pest or weed control at 2241.7 g/ha [1] | pest or weed control at 2241.7 g/ha (marigold (Tagetes spp.) [2]) | pest or weed control at 2241.7 g/ha [3] | pest or weed control at 2241.7 g/ha [4] | pest or weed control at 2241.7 g/ha [5] | pest or weed control at 2241.7 g/ha [6] | pest or weed control at 2241.7 g/ha [7] | pest or weed control at 2241.7 g/ha (foxtail (Setaria spp.) [8]) | pest or weed control at 2241.7 g/ha [9] | pest or weed control at 2241.7 g/ha (wild oats (Avena fatua) [10]) | pest or weed control at 2241.7 g/ha [11] | pest or weed control at 2241.7 g/ha (marigold (Tagetes spp.) [12]) | pest or weed control at 2241.7 g/ha [13] | pest or weed control at 2241.7 g/ha [14] | pest or weed control at 2241.7 g/ha [15] | pest or weed control at 2241.7 g/ha [16] | pest or weed control at 2241.7 g/ha [17] | pest or weed control at 2241.7 g/ha (foxtail (Setaria spp.) [18]) | pest or weed control at 2241.7 g/ha [19] | pest or weed control at 2241.7 g/ha (wild oats (Avena fatua) [20])
CCOC(=O)C(C)Oc1ccc(Oc2ccc(C(F)(F)F)cc2Cl)cc1Cl (centres unmarked) [Example 7] | 0% | 0% | 0% | 0% | 0% | 0% | 0% | 90% | 0% | 0% | 80% | 20% | 100% | 80% | 80% | 10% | 0% | 40% | 0% | 20%
CCOC(=O)C(C)Oc1cccc(Oc2ccc(C(F)(F)F)cc2Cl)c1 (centres unmarked) [Example 2] | 0% | 90% | 0% | 100% | 100% | 30% | 0% | 100% | 0% | 20% | 90% | 90% | 100% | 100% | 100% | 60% | 40% | 50% | 0% | 50%
CC(C#N)Oc1ccc(Oc2ccc(C(F)(F)F)cc2)cc1 (centres unmarked) [Example 41, 2-[4-(4-trifluoromethylphenoxy)phenoxy] propionitrile] | 0% | 0% | 0% | 0% | 0% | 99% | 80% | 100% | 0% | 70% | 0% | 0% | 0% | 0% | 0% | 100% | 40% | 60% | 0% | 99%
CC(Oc1ccc(Oc2ccc(C(F)(F)F)cc2Cl)cc1)C(N)=O (centres unmarked) [Example 18] | 0% | 0% | 0% | 0% | 0% | 100% | 95% | 100% | 0% | 0% | 0% | 0% | 0% | 0% | 0% | 99% | 40% | 99% | 0% | 95%

— patent publication US4335249A, “Herbicidal diphenyl ethers, sulfides, sulfoxides and sulfones” (Rohm and Haas Company, priority 1976, dated 1982)
